The structures appear in SMILES notation.

One test relates to BBB leakage. Kind of test: BBB disruption by Evans blue extravasation in CCI rat model of TBI. Type of test: in vivo, Sprague Dawley rats. Conditions: 24 hr after TBI; GSNO 0.05 mg/kg i.v. or FeTPPS 3 mg/kg i.v. right after impact. The source says: All animals used in this study received humane care in compliance with the Medical University of South Carolina's (MUSC) guidance and the National Research Council's criteria for humane care. Animal procedures were approved by the institutional animal care and use committee of MUSC (AR #2703). For generation of CCI model of TBI, young adult male (˜3-4 months old) Sprague Dawley rats weighing between 260-300 g were randomly divided into four groups: 1) TBI animals treated with vehicle (TBI; n=13), 2) TBI with GSNO (0.05 mg/kg body weight/i.v.) treatment (TBI+GSNO; n=13), 3) TBI with FeTPPS (3 mg/kg body weight, i.v.) treatment (TBI+FeTPPS; n=13), 4) sham-operated treated with vehicle (Sham; n=13). The group size was determined by power analysis based on our previous data (Khan et al., 2016b; Khan et al., 2009). Ketamine (90 mg/kg body weight) and xylazine (10 mg/kg body weight) as surgical anesthesia were administered intraperitoneally. Analgesic buprenorphine was administered pre-emptively to alleviate pain following surgery. […]
BBB leakage was assessed as previously described from our laboratory (Khan et al., 2016b; Khan et al., 2009). […] The brain tissues were homogenized in 750 μl of N, N-dimethylformamide (DMF) and centrifuged at 10,000×g for 25 minutes, and EB content in supernatant was fluorimetrically analyzed (λex 620 nm, λem 680 nm).

The subject of test [1] is CD4+ T cells (TH1, TH2, TH17, Treg). Description: Fluorescence flow cytometry, polarization/expansion of CD4+ T cell subsets in spleens of EAE mice. Details: species or system C57BL/6 mice. The conditions noted are these: EAE mice at peak of disease, ex vivo MOG restimulation. Here is the method: (§1) Female C57BL/6 mice of 8-12 weeks of age, purchased from Jackson Laboratory, were provided with food and water ad libitum and were kept in pathogen free animal care facility of Medical University of South Carolina (MUSC) throughout the study. All procedures were conducted in accordance with accepted standards of humane care as approved by the Institutional Animal Care and Use Committee (Approved number: AR #1644). EAE was induced as described previously (Nath et al., 2009). Briefly, mice were immunized subcutaneously in the flank regions with MOG35-55 peptide (MOG; 200 μg; Peptide International) emulsified (1:1) in 100 ul complete Freund's adjuvant (CFA) on day 0 and day 7. Additionally, 300 ng of Pertussis toxin (Sigma-Aldrich, St. Louis, Mo.) was given on day 0 and day 2 by i.p. injection. Pertussis toxin used as per the standardized protocol reported by us and other investigators for the induction of EAE (Nath et al., 2009). Similarly, healthy control group received subcutaneous injection of PBS and CFA emulsion on day 0 and day 7. Clinical signs of EAE were scored by examiners blinded to experimental treatments using the following scale: 0=no clinical signs of disease; 1=piloerection and sluggish; 2=limp tail (ataxia); 2.5=ataxia with partial hind limb paralysis; 3=full paralysis of hind limb; 3.5=full paralysis of hind limb with paralysis of one fore limb; 4=full paralysis of two limbs; 4.5=moribund stage; 5=death. […] The drug treatments were continued till the termination of the study (day 41 post immunization). EAE animals without drug treatment received PBS. Likewise, healthy controls received vehicle.
Fluorescence flow cytometry analysis for each subset of CD4+ T cells (TH1, TH2, TH17, CD4+CD25+ FOXP3+ Treg, and CD4+CD25+ FOXP3− Treg) were performed based on our previous report with modification (Nath et al., 2004). Briefly, control mice, EAE mice. EAE mice treated with GSNO. […] Following the preparation of single cell suspension, red blood cells were lysed with Pharma lyse buffer (BD Pharmingen™) and the remaining spleen cells were washed with RPMI 1640. The isolated CD4+ T cells were then resuspended with complete RPMI-media in 12-well plates (5×10^6 cells' 2 ml per well) containing MOG peptide (25 μg/ml) for 48 hrs. Following the centrifugation, the resulted supernatants were collected for ELISA for CD4+ subset specific cytokines (see below). The cell pellets were washed with cell staining solution (ebioscience, Waltham, Mass. USA) and stained with fluorescence labeled antibody specific to IFN-γ for TH1. IL-4 for TH2, IL-17 for TH17, CD25+ for total Treg. CD25+ and FOXP3+ for FOXP3+ Treg, and CD25+ and FOXP3− for FOXP3-Tregs (ebioscience, Waltham, Mass., USA). The cells were counted and analyzed using Beackman Coulter instrument (Beckman Coulter, Inc., Brea, Calif., USA).
A general note: A flow cytometer gives signals particle by particle.

Test [2] shares this test system. Kind of test: Fluorescence flow cytometry of CD4+ T cell subsets in spinal cords of EAE mice. Conditions: EAE mice at peak of disease, 1 mg/kg/day. Type of test: in vivo, C57BL/6 mice. Here is the method:
as §1
Fluorescence flow cytometry analysis for each subset of CD4+ T cells (TH1, TH2, TH17, CD4+CD25+ FOXP3+ Treg, and CD4+CD25+ FOXP3− Treg) were performed based on our previous report with modification (Nath et al., 2004). Briefly, control mice, EAE mice. EAE mice treated with GSNO. […] The isolated CD4+ T cells were then resuspended with complete RPMI-media in 12-well plates (5×10^6 cells' 2 ml per well) containing MOG peptide (25 μg/ml) for 48 hrs. Following the centrifugation, the resulted supernatants were collected for ELISA for CD4+ subset specific cytokines (see below). The cell pellets were washed with cell staining solution (ebioscience, Waltham, Mass. USA) and stained with fluorescence labeled antibody specific to IFN-γ for TH1. IL-4 for TH2, IL-17 for TH17, CD25+ for total Treg. CD25+ and FOXP3+ for FOXP3+ Treg, and CD25+ and FOXP3− for FOXP3-Tregs (ebioscience, Waltham, Mass., USA). The cells were counted and analyzed using Beackman Coulter instrument (Beckman Coulter, Inc., Brea, Calif., USA).

Consider `Cl.O=S(=O)([O-])c1ccc(-c2c3nc(c(-c4ccc(S(=O)(=O)O)cc4)c4ccc([nH]4)c(-c4ccc(S(=O)(=O)O)cc4)c4nc(c(-c5ccc(S(=O)(=O)O)cc5)c5ccc2[nH]5)C=C4)C=C3)cc1.[Fe]` [FeTPPS, 5,10,15,20-Tetrakis(4-sulfonatophenyl)porphyrinato Iron (III), Cl, reference compound], for which the “TBI-induced increase in Evan's blue extravasation” value in the test on BBB leakage is “reduced”.

For `Cc1cc(C(N)=O)ccc1-n1c(CCC(=O)O)ccc1-c1ccc(-n2ccnc2)cc1` [N6022, reference compound], in test [1], the “TH2 polarization/expansion in spleens” value was “fully restored”, the “polarization/expansion of CD4+CD25+ FOXP3+ Treg cells in spleens” value is “restored”, the “polarization/expansion of CD4+CD25+ FOXP3− Treg cells in spleens” value was “increased” and the “polarization/expansion of TH1 cells in spleens” value is reported as “reduced”. Moreover, the “polarization/expansion of TH17 cells in spleens” value in test [1] was “reduced”. Besides, in test [2], the “number of CD4+ IFN-γ+ (TH1) cells in spinal cords” value is “reduced”, the “number of CD4+ IL-17 (TH17) cells in spinal cords” value was “reduced”, the “number of CD4+CD25+ FOXP3+ Treg cells in spinal cords” value is “increased” and the “number of CD4+CD25+ FOXP3− Treg cells in spinal cords” value is given as “increased”. For the same compound, the “number of TH2 cells in the CNS” value in test [2] was “increased”.

For `N[C@@H](CCC(=O)N[C@@H](CSN=O)C(=O)NCC(=O)O)C(=O)O` [GSNO, S-nitrosoglutathione], in test [1], the “polarization/expansion of CD4+CD25+ FOXP3+ Treg cells in spleens” value was “without altering”, the “polarization/expansion of CD4+CD25+ FOXP3− Treg cells in spleens” value was “significantly increased”, the “polarization/expansion of TH1 cells in spleens” value is recorded as “no obvious effect” and the “polarization/expansion of TH17 cells in spleens” value is on record as “significantly decreased”. Further, the “polarization/expansion of total Treg cells (CD4+CD25+) in spleens” value in test [1] was “increased”. Further, the “TBI-induced increase in Evan's blue extravasation” value with BBB leakage was “reduced”. Besides, in test [2], the “number of CD4+ IFN-γ+ (TH1) cells in spinal cords” value is recorded as “no obvious effect”, the “number of CD4+ IL-17 (TH17) cells in spinal cords” value is reported as “significantly decreased”, the “number of CD4+CD25+ FOXP3+ Treg cells in spinal cords” value was “without altering” and the “number of CD4+CD25+ FOXP3− Treg cells in spinal cords” value is “significantly increased”. Further, in test [2], the “number of total Treg cells (CD4+CD25+) in spinal cords” value is recorded as “increased”.
